Experimental data reported in patent US7589168B2 (Roskamp Research LLC, priority 2001, dated 2009).
Entries after “also recorded” stand apart in the source; their conditions may differ. Ends that are not written are not given here.

Legend:
[1] = test system: rat aortic rings; assay: Ex vivo rat aortic ring angiogenesis assay; assay type: cell-based, Sprague Dawley rats
[2] = test system: cow middle cerebral artery rings; assay: Cow middle cerebral artery ring angiogenesis assay; assay type: cell-based; conditions: COX-2 inhibition by NS-398; data not shown
[3] = test system: human middle cerebral artery rings; assay: Human middle cerebral artery ring angiogenesis assay; assay type: cell-based; conditions: for microvessel outgrowths: day 9, vs control
[4] = test system: B16F1 melanoma cells; assay: Growth of subcutaneous B16F1 melanoma tumors; assay type: in vivo, C57B16/J mice; conditions: cells injected s.c. in medium containing 10 μM freshly dissolved Aβ1-40; 14 days after implantation
Method: Subcutaneous Implantation of B16 Melanoma Cells. C57B16/J mice were purchased from Jackson laboratories at 8 weeks of age. The B16 F1 murine melanoma cell line was purchased from ATCC. Cells were grown in DMEM medium supplemented with 10% fetal calf serum and 1× mixture of antibiotics-fungicide (BIOWHITEKER). […] 100 μl of cell suspension were injected subcutaneously in mice. Fourteen days after the implantation of the cells, mice were euthanized and the tumors dissected and weighted.

[5] = test system: endothelial cells; assay: Toxicity (apoptosis, necrosis) of Aβ in the capillary network assay; assay type: cell-based, human; conditions: soluble or aggregated Aβ; data not shown
Method: Although endothelial cells continue to proliferate and form a cobblestone monolayer when plated on untreated tissue culture dishes, culturing on dishes coated with reconstituted basement membrane induces endothelial cells to become quiescent and adopt a three-dimensional capillary-like morphology. Therefore, the effect of Aβ on the capillary-like network formation on […] by endothelial cells isolated from human middle cerebral artery was assessed. […] The potential toxicity of Aβ was investigated in this assay and it was observed that under these culture conditions no apoptosis (as measured by ELISA determining the quantity of cytoplasmic oligonucleosomes) or necrosis (estimated by the release of LDH in the culture medium) of endothelial cells was induced by either soluble or aggregated Aβ (data not shown).

[6] = test system: bFGF-induced angiogenesis in MATRIGEL plugs; assay: In vivo […] plug assay (bFGF-induced angiogenesis); design: species or system mice
[7] = test system: human brain endothelial cells; assay: Endothelial cell migration assay (modified Boyden chamber, […] invasion chamber); assay type: cell-based; conditions: 20 hours, vs untreated cells
Method: Endothelial Cell Migration Assay. Migration of human brain adult endothelial cells was evaluated using a modified Boyden chamber assay (BD BioCoat [sequence] Invasion Chamber), as described (Soker et al. 1998; Nakamura et al. 1997). The cells were plated at 4.10^4/ml onto an 8 μm pore size membrane coated with a thin layer of [sequence] basement membrane matrix. Freshly solubilized Aβ (1 μM and 5 μM) was added to the medium in the outer cup and the cells were cultured for 20 hours. Non-invading cells were removed from the upper surface by using a cotton swab. Membrane inserts were then fixed with 4% paraformaldehyde and stained with the DEAD-RED dye (MOLECULAR PROBE). Cells were observed using a fluorescent microscope. The number of cells, which migrated to the undersurface of the filter, was quantified by counting the cells in randomly selected 3 microscopic fields (10×). Experiments were done in triplicate.

[8] = test system: A-549 (human lung adenocarcinoma); assay: Nude mouse tumor xenograft model, A-549; assay type: in vivo, nude mice; conditions: for tumor growth (tumor volume): vs vehicle control; for tumor vascularization (mean microvessel count per tumor): vs control tumors, 50 mg/kg/day
Method: (§1) Nude mouse tumor xenograft model. […] The tumor volumes were determined by measuring length (l) and width (w) and calculating volume (V=lw^2/2). On the termination day of each in vivo antitumor study, tumors were extracted and fixed in 10% neutral buffered formalin for 6 h. Formalin-fixed paraffin sections were cut at 3 microns and dried overnight at room temperature. Sections were immunostained with rat anti-mouse CD31 ([sequence], San Diego, Calif.) using the avidin peroxidase complex technique as previously described (Blaskovich M. A., et al. Nat. Biotechnol. 18, 1065-1070 (2000)). Briefly, sections were digested with protease XXIV (1 mg/ml in PBS, pH 7.6) for 7 minutes. Endogenous peroxidase was blocked with 3% hydrogen peroxide and non-specific background staining reduced by a 10 min incubation with normal rabbit serum. Sections were incubated for 30 min with rat anti-mouse CD31 at 1:50, for 15 min with biotinylated anti-rat IgG and for 15 min with ABC complex (VECTOR KIT, Burlingame, Calif). NOVARED was used as the chromogen. Slides were counterstained with modified Mayer's hematoxylin using standard histological techniques. For microvessel counting, the five areas of highest tumor neovascularization were microscopically selected using a low-power view. After the areas of highest neovascularization had been identified, individual microvessels were counted on a 400×(40× objective lens and 10× ocular lens) field. Brown-staining endothelial cells or endothelial cell clusters were considered as a single, countable microvessel as previously described (Weidner N. et al. N. Engl. J. Med. 324, 1-8 (1991)). Data from at least forty 400× fields of each tumor type are reported by mean values±SE. Results are expressed as the % of microvessel count standardized against the microvessel count in the control tumors (vehicle only).

[9] = test system: U87-MG (human glioblastoma); assay: Nude mouse tumor xenograft model, U87-MG; assay type: in vivo, nude mice
Method: as §1

[10] = test system: neovascularization stimulated by bFGF in the rat cornea; assay: Rat corneal model of angiogenesis (bFGF hydron pellets); assay type: in vivo
Excerpt: Representative flat-mount photomicrographs of rat corneas (original magnification ×100) 7 days after implantation of hydron pellets. […] Angiogenesis indexes are expressed as mean±SE.

[11] = test system: chick chorionic allantoid membrane (CAM); assay: Chick chorionic allantoid membrane (CAM) model of angiogenesis; assay type: in vivo; conditions: dose range 1 microgram to 250 micrograms, 48 hours
Method: After 48 hours of incubation, CAMs were perfused with colloidal carbon, fixed and photographed.

[12] = 50 mg/kg/day/tumor intratumorally

CS(=O)(=O)Nc1ccc([N+](=O)[O-])cc1OC1CCCCC1 [NS-398]
microvessel outgrowths ([1]; 20 μM, day 5, vs control): displays anti-angiogenic activity; also recorded: effectively inhibited outgrowths
effect on stimulation of microvessel outgrowths by 1 μM Aβ1-40 ([1]; NS-398 + 1 μM Aβ1-40, day 5): able to oppose the pro-angiogenic effect of 1 μM Aβ1-40; also recorded: also inhibited
microvessel outgrowths [2]: partial inhibition of microvessel outgrowths
microvessel outgrowths ([3]; NS-398 (20 μM)): partially inhibited the microvessel outgrowths; also recorded: anti-angiogenic effect

Aβ: Aβ peptide as worded in the examples; methods and legends indicate Aβ1-40 (toxicity test: soluble or aggregated Aβ1-40 and Aβ1-42)
development of tumors (tumor weight) [4]: significantly reduce the development of tumors
apoptosis of endothelial cells (ELISA, cytoplasmic oligonucleosomes) [5]: no apoptosis
necrosis of endothelial cells (release of LDH in the culture medium) [5]: no
total cellular invasion in MATRIGEL plugs ([6]; 50 mg/kg/day, Aβ vs scrambled Aβ group, t-test): significant difference
angiogenesis in the MATRIGEL plug model ([6]; with 2 μM of Aβ peptide): inhibition of angiogenesis
endothelial cell migration ([7]; 1 μM freshly solubilized): stimulated endothelial cell migration
endothelial cell migration ([7]; 5 μM freshly solubilized): significantly suppressed endothelial cells migration
tumor growth (tumor volume) [8, 12]: suppression of tumor growth
reduction of tumor microvessel densities ([8]; CD31 and factor VIII immunostaining, 50 mg/kg/day/tumor intratumorally): approximately 60%
tumor growth ([8]; with 10 μM of Aβ peptide): complete inhibition of tumor growth
tumor growth (tumor volume) ([9]; 50 mg/kg/day/tumor intratumorally, vs vehicle control): suppression of tumor growth
reduction of microvessel densities ([9]; CD31 immunostaining, 50 mg/kg/day/tumor intratumorally): approximately 50%
tumor growth ([9]; with 10 μM of Aβ peptide): complete inhibition of tumor growth

VIGKYHGMSNLVGRSFEVHQGKGAEVDAHGLFDIEAFVDV [scrambled Aβ, having the same amino acids as Aβ1-40 peptide, but in random order]
endothelial cell invasion and vessel formation (PECAM-1 immunostaining) ([6]; 50 mg/kg/day intraperitoneal, 6 days): presence of endothelial cells forming vessels
neovascularization stimulated by bFGF ([10]; after 7 days, hydron pellets): displayed no effect
angiogenesis index vs control (bFGF alone) ([10]; dose not stated, 7 days): no significant difference
microvessel outgrowths ([3]; 1 μM, listed as scramble Aβ1-40): absence of pro-angiogenic activity; also recorded: not altered
microvessel outgrowths ([3]; 5 μM): not altered
formation of outgrowths ([3]; scramble peptide, dose not given, 9 days): unable to affect the formation of outgrowths
tumor growth (tumor volume) [8, 12]: did not affect the growth of human lung tumors; also recorded: no difference
tumor vascularization (mean microvessel count per tumor) [8, 12]: no significant difference
tumor vascularization (mean microvessel count per tumor) ([8]; 50 mg/kg/day/tumor intratumorally, listed as Aβ scrambled): did not impede tumor vascularization
vascular response vs control conditions [11]: no difference in vascular response
